The results in this text go back to patent US11028072B2, “2,4-diamino-6-ethylpyrimidine derivatives with antimalarial activities against Plasmodium falciparum” (National Science and Technology Development Agency, priority 2015, dated 2021).

Like-named read-outs stand apart in the source and are kept apart here.

For orientation: melting point means the temperature of the solid-liquid transition. What is called Ki is a dissociation constant, usually derived from enzyme kinetics or from competition with a known ligand.

The nature of one data set: in vitro. The note with it: African green monkey. The source says: (§1) In Vitro Antimalarial Activites Against P. falciparum and Cytotoxicity Towards Mammalian Cells (Vero Cells)
Another data set deals with wild type (WT) pfDHFR (Plasmodium falciparum, UniProt P13922, N108S/R59C). Nature of the data set: Inhibition of wild type pfDHFR (Ki). Type of data set: biochemical. Here is the method: (§2) The synthesized 2,4-diamino-6-ethylpyrimdine derivatives as the hydrochloride salts were tested for the activities against Plasmodium falciparum (P. falciparum) according to the standard methods. These include the inhibition of dihydrofolate reductase (DHFR) enzymes of P. falciparum including, wild type (WT) and quadruple mutants (N51IC59RS108NI164L) (QM). The inhibition was expressed as inhibition constants (Ki) in nano molar (nM).

In data set [1] the target is quadruple mutant N51I + C59R + S108N + I164L (QM) pfDHFR (Plasmodium falciparum, UniProt P13922, I164L/N51I). Kind of data set: Inhibition of quadruple mutant pfDHFR (Ki). Type of data set: biochemical. Here is the method: as §2
Data set [2] relates to P. falciparum TM4/8.2 (wild type). Kind of data set: microbe, parasite or virus in culture. The class given is cell-based, Plasmodium falciparum. The following applies: read-out: IC50 P. falciparum TM4/8.2 (WT).
From the text: as §1

Data set [3] deals with P. falciparum V1/S (N51I + C59R + S108 + I164L). Nature of the data set: microbe, parasite or virus in culture. The note with it: read-out: IC50 P. falciparum V1/S. Type of data set: cell-based, Plasmodium falciparum.
From the text: as §1

For data set [4], the target named is T1, Human dihydrofolate reductase (hDHFR) (Homo sapiens, UniProt P00374).
T1 sequence (P00374 1-187): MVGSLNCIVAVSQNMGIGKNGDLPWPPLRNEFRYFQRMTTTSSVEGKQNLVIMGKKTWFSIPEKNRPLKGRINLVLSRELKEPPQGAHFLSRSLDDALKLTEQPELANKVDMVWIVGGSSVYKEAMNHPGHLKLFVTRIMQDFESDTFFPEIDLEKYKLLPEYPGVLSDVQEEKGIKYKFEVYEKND
Nature of the data set: Inhibition of human dihydrofolate reductase (Ki). Type of data set: biochemical. The note with it: human DHFR; hydrochloride salts.

A further data set relates to Vero cells. Kind of data set: in vitro. The following applies: read-out: Cytotoxicity against Vero cells (IC50); Vero cells.
From the text: as §1

Where [5] appears, read: Plasmodium falciparum, in vitro, wild-type strain TM4/8.2.
Where [6] appears, read: Plasmodium falciparum, in vitro, quadruple mutant strain V1/S.

Sequence of quadruple mutant N51I + C59R + S108N + I164L (QM) pfDHFR (P13922 whole entry N51I/I164L): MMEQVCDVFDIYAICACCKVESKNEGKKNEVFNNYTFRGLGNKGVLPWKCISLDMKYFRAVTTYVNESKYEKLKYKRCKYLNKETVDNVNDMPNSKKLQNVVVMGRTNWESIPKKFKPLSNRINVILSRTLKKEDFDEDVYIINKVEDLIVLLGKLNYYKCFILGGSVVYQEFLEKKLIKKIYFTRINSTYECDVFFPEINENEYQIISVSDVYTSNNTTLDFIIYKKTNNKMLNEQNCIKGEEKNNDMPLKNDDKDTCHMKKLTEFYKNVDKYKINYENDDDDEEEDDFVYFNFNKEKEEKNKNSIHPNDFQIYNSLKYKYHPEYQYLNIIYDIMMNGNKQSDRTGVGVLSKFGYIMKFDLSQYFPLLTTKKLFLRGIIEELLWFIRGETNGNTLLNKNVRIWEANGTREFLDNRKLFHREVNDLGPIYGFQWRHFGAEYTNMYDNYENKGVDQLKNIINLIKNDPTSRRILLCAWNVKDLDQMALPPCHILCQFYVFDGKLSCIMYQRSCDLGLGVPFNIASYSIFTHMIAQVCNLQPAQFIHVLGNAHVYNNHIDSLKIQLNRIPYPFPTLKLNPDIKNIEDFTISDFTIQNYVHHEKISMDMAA
Sequence of wild type (WT) pfDHFR (P13922 whole entry R59C/N108S): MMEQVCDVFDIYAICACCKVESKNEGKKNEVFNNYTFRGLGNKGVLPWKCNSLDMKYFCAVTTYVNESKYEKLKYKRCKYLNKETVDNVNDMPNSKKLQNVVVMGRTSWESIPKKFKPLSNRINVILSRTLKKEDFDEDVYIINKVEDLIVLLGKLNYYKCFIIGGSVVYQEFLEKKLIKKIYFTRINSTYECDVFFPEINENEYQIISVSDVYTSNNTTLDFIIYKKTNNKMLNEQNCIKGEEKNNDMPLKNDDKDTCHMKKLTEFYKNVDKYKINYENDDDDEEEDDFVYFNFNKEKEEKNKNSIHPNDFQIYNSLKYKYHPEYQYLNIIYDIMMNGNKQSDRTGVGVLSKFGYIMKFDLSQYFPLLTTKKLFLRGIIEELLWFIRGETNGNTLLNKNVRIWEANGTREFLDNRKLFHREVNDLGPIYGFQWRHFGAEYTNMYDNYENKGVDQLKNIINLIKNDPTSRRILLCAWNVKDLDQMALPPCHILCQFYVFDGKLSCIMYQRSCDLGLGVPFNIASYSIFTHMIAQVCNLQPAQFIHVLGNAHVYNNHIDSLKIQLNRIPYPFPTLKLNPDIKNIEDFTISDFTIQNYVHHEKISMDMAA

As to `CCc1nc(N)nc(N)c1OCc1csc(-c2cccc(C(=O)O)c2)n1.Cl` [Compound 66, 2,4-diamino-6-ethyl-5-((2-(3-(carboxy)phenyl)thiazol-4-yl)methoxy)pyrimidine Hydrochloride], the melting point fell in the range of 217.5 to 219 °C. Further, the IC50 in the data set “in vitro” was > 10000 nM. Besides, the Ki on wild type (WT) pfDHFR came out at 0.86 ± 0.1 nM. In addition, the Ki in data set [1] worked out at 36.7 ± 4.79 nM. In addition, in data set [2] (setting [5]), the IC50 was found to be 2170 ± 540 nM. Besides, the IC50 in data set [3] (setting [6]) was > 10000 nM. The Ki in data set [4] stood at 102 ± 5.26 nM.
Consider `CCc1nc(N)nc(N)c1OCCCc1cc(-c2cccc(C(=O)O)c2)no1.Cl` [Compound 49, 2,4-diamino-6-ethyl-5-(3-(3-(3-(carboxy)phenyl)isoxazol-5-yl)propoxy)pyrimidine Hydrochloride], for which the melting point was in the range of 219 to 220.5 °C. In addition, the IC50 in “in vitro” is > 100000 nM. The compound also returned a Ki on wild type (WT) pfDHFR of 0.19 ± 0.02 nM. Further, the Ki in data set [1] was determined as 0.29 ± 0.01 nM. The IC50 in data set [2] (setting [5]) is 7 ± 1.5 nM. In addition, the IC50 in data set [3] (setting [6]) is 130 ± 40 nM. Moreover, in data set [4], the Ki came to 12.6 ± 1.43 nM.
`CCc1nc(N)nc(N)c1-c1cn(-c2cccc(C(=O)O)c2)nn1.Cl` [Compound 2, 2,4-diamino-6-ethyl-5-(1-(3-(carboxy)phenyl)-1H-1,2,3-triazol-4-yl)pyrimidine Hydrochloride] gave a melting point of 205 to 207 °C. Further, the IC50 in “in vitro” is > 10000 nM. The same compound displayed a Ki at wild type (WT) pfDHFR of 1030 ± 89.3 nM. For the same compound, in data set [1], the inhibition constant Ki worked out at 6650 ± 409 nM. Besides, in data set [2] (setting [5]), the IC50 is > 10000 nM. Also, in data set [3] (setting [6]), the IC50 was > 10000 nM. Moreover, in data set [4], the Ki is > 100000 nM.
Regarding `CCc1nc(N)nc(N)c1OCCCOc1ccccc1CCC(=O)O` [Compound P218, reference compound], the IC50 with Vero cells is > 10000 nM; in data set [2] it was 4.6 ± 1.9 nM; in data set [3] (in vitro, quadruple mutant strain V1/S) it was 56 ± 20 nM. Also, the Ki in data set [4] was found to be 17.4 ± 3.8 nM.
As for `CCc1nc(N)nc(N)c1OCc1cn(-c2cccc(C(=O)O)c2)nn1.Cl` [Compound 16, 2,4-diamino-6-ethyl-5-((1-(3-(carboxy)phenyl)-1H-1,2,3-triazol-4-yl)methoxy)pyrimidine Hydrochloride], the melting point fell in the range of 197.5 to 199.5 °C. Besides, in “in vitro”, the IC50 was > 25000 nM. The compound also gave an inhibition constant (Ki) on wild type (WT) pfDHFR of 0.27 ± 0.03 nM. Further, in data set [1], the Ki turned out to be 6.18 ± 0.6 nM. For the same compound, the IC50 in data set [2] (setting [5]) came to 600 ± 240 nM. Moreover, the IC50 in data set [3] (setting [6]) is > 25000 nM. Further, the Ki in data set [4] was determined as 817 ± 145 nM.
For the compound `CCc1nc(N)nc(N)c1OCc1cc(-c2cccc([N+](=O)[O-])c2)no1` [Compound 39], the IC50 in “in vitro” was > 50000 nM; in data set [2] (setting [5]) it was 1160 ± 550 nM; in data set [3] (setting [6]), 9080 ± 1050 nM. The Ki on wild type (WT) pfDHFR was 1.33 ± 0.17 nM; in data set [1], 49 ± 6.73 nM; in data set [4] it was > 100000 nM.
In the case of `CCc1nc(N)nc(N)c1-c1cn(Cc2ccc(OC(=O)N(c3ccccc3)c3ccccc3)cc2)nn1` [Compound 6], the IC50 in the data set “in vitro” was > 25000 nM; in data set [2] (setting [5]), 5590 ± 1540 nM; in data set [3] (setting [6]) it was 4310 ± 930 nM. For the same compound, the inhibition constant Ki at wild type (WT) pfDHFR turned out to be 10.3 ± 1.69 nM; in data set [1] it was 17.5 ± 2.19 nM. In addition, the “Ki hDHFR” value in data set [4] was “High”.
In the case of `CCc1nc(N)nc(N)c1OCCCc1cc(-c2cccc(C(F)(F)F)c2)no1` [Compound 46], the IC50 is 10500 nM in the data set “in vitro”, 130 ± 40 nM in data set [2] (Plasmodium falciparum) and 17700 ± 4740 nM in data set [3] (Plasmodium falciparum). In addition, the Ki at wild type (WT) pfDHFR is 0.39 ± 0.03 nM; in data set [1], 1.74 ± 0.14 nM; in data set [4], 26.12 ± 0.24 nM.
